We go through eight molecules from ChEMBL document CHEMBL3621149, “Cytotoxic labdane-type diterpenes from Hedychium longipetalum inhibiting production of nitric oxide” (Bioorg Med Chem Lett, 2015).

The structures appear in SMILES notation. Values after ≈ are worked out from the molar mass of the structure shown. Peptide text beside a SMILES is read from it. * marks the point of attachment. Cbz = O=C(OCc1ccccc1)* Some results are limits rather than exact numbers.

Usually IC50 stands for the midpoint of a concentration-inhibition curve. The low end stands for greater potency, the high end for weaker potency.

What all share (format): functional, cell-based
The subject of one assay is RAW264.7. In words: Inhibition of LPS and IFN-gamma-stimulated nitric oxide production in mouse RAW264.7 cells after 18 hrs by Griess method. Particulars: RAW264.7, 18 h. In general terms: Griess reagent forms a coloured azo dye with nitrite.
The test system of another assay is HeLa. In words: Cytotoxicity against human HeLa cells after 48 hrs by SRB assay. In general terms: The SRB assay estimates cell density from bound dye.
Assay [1] can be described thus: Cytotoxicity against human SGC7901 cells after 48 hrs by SRB assay. Particulars: SGC-7901, 48 h.

In the case of `CC(C)C[C@@H](C=O)NC(=O)[C@H](CC(C)C)NC(=O)[C@H](CC(C)C)NC(=O)OCc1ccccc1` [MG-132] (Cbz-Leu-Leu-Leu-aldehyde), the midpoint of inhibition with RAW264.7, the IC50, lay at 0.08 µg/mL (≈ 0.168 µM).

`C=C1C[C@@H](O)[C@H]2C(C)(C)CCC[C@]2(C)[C@H]1/C=C/c1ccoc1` [YUNNACORONARIN A]: the results for the IC50 (in the assay on HeLa; in the assay on RAW264.7; in assay [1]) were 6.58 µg/mL (≈ 21.9 µM), 0.56 µg/mL (≈ 1.86 µM) and 6.21 µg/mL (≈ 20.7 µM), respectively.

On to `C=C1[C@@H](O)C[C@H]2C(C)(C)CCC[C@]2(C)[C@H]1/C=C/C1=CCOC1=O`, for which the IC50 came to 14.8 µg/mL (≈ 46.9 µM) in the assay with HeLa, 6.52 µg/mL (≈ 20.6 µM) with RAW264.7 and 14.5 µg/mL (≈ 45.9 µM) in assay [1].

Take `CC(=O)O[C@H]1C(=O)[C@@]2(C)[C@H]([C@H](OC(=O)c3ccccc3)[C@]3(O)C[C@H](OC(=O)[C@H](O)[C@@H](NC(=O)c4ccccc4)c4ccccc4)C(C)=C1C3(C)C)[C@]1(OC(C)=O)CO[C@@H]1C[C@@H]2O` [PACLITAXEL]: the IC50 in the assay on HeLa was 0.1 µg/mL (≈ 0.117 µM); in assay [1] it was 0.2 µg/mL (≈ 0.234 µM).

`C=C1C[C@@H](O)[C@H]2C(C)(C)CCC[C@]2(C)[C@H]1C/C=C1/CC(OC)OC1=O` (stereo partly specified): the results for the IC50 (in the assay on HeLa; in the assay with RAW264.7; in assay [1]) were 11.3 µg/mL (≈ 32.5 µM), 6.1 µg/mL (≈ 17.5 µM) and 8.74 µg/mL (≈ 25.1 µM), respectively.

Take `C=C1[C@@H](O)C[C@H]2C(C)(C)CCC[C@]2(C)[C@H]1/C=C/C1=CC(=O)OC1O` (stereo partly specified) [HEDYFORRESTIN C]: the IC50 in the assay on HeLa worked out at 9.21 µg/mL (≈ 27.7 µM); in the assay with RAW264.7, 2.77 µg/mL (≈ 8.33 µM); in assay [1], 7.29 µg/mL (≈ 21.9 µM).

Consider `C=C1[C@@H](O)[C@@H](O)[C@H]2C(C)(C)CCC[C@]2(C)[C@H]1/C=C/C1=CCOC1=O`, for which the IC50 with HeLa is more than 25 µg/mL; with RAW264.7 it was 5.58 µg/mL (≈ 16.8 µM); in assay [1], more than 25 µg/mL.

Take `CC1(C)CCC[C@]2(C)[C@@H]3C(=CC(=O)[C@@H]12)CO[C@H]3C(=O)c1ccoc1`: the results for the 50% inhibitory concentration (IC50) (in the assay on HeLa; in the assay on RAW264.7; in assay [1]) were more than 25 µg/mL, 7.5 µg/mL (≈ 22.8 µM) and more than 25 µg/mL, respectively.
